Data from patent US8124381B2, “Process and materials for production of glucosamine and N-acetylglucosamine” (Arkion Life Sciences, priority 2002, dated 2012).
Entries after “also recorded” stand apart in the source; their conditions may differ.

Tests used:
[1] = biological target: T1, E. coli glucosamine synthase GlmS*54 (Escherichia coli, UniProt P17169, A39T/G472S/R250C); assay: Effects of phosphorylated sugars on glucosamine synthase; format: biochemical
T1 construct: made in house; host or cells: E. coli 7107-18 (printed '7017-18'; T7-glmS*54 integrated at galK) and strains derived from it; crude extract
Description: Glucosamine synthetase activity was examined in the presence of various phosphorylated sugars. Crude enzyme extracts was prepared from cells of 7017-18 grown in shake flasks for 24 hours with lactose induction.

[2] = biological target: glucosamine N-acetyltransferase (Saccharomyces cerevisiae, UniProt P43577); assay: Product inhibition of glucosamine N-acetyltransferase; format: biochemical
glucosamine N-acetyltransferase, sequence (P43577 whole entry): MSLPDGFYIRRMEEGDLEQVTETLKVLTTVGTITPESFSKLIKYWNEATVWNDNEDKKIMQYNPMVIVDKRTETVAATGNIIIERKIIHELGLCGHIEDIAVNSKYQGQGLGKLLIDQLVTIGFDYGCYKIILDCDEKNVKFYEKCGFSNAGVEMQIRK

[3] = biological target: glucose-6-P dehydrogenase (zwf) (Escherichia coli, UniProt P0AC53, A9V); assay: Effect of phosphorylated amino sugars on glucose-6-P dehydrogenase; format: biochemical; conditions: in vitro, FIG. 16
glucose-6-P dehydrogenase (zwf), sequence (P0AC53 whole entry A9V): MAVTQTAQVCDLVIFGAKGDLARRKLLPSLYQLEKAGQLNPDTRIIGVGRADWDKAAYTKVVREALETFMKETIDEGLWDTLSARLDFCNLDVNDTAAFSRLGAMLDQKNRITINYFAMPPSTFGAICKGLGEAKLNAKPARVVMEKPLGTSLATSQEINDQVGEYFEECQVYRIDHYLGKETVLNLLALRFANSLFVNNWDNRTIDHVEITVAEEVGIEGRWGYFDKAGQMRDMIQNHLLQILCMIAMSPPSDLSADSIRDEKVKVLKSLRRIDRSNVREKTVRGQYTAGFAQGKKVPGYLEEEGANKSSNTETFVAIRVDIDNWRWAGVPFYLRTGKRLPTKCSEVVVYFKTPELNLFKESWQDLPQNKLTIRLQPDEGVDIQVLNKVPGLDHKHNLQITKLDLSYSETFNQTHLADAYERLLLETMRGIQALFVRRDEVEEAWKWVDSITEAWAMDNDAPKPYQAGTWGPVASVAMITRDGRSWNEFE

[4] = biological target: phosphoglucoisomerase (Pgi) (Escherichia coli, UniProt P0A6T1); assay: Effect of phosphorylated amino sugars on phosphoglucoisomerase activity; format: biochemical; conditions: in vitro, FIG. 15
phosphoglucoisomerase (Pgi), sequence (P0A6T1 whole entry): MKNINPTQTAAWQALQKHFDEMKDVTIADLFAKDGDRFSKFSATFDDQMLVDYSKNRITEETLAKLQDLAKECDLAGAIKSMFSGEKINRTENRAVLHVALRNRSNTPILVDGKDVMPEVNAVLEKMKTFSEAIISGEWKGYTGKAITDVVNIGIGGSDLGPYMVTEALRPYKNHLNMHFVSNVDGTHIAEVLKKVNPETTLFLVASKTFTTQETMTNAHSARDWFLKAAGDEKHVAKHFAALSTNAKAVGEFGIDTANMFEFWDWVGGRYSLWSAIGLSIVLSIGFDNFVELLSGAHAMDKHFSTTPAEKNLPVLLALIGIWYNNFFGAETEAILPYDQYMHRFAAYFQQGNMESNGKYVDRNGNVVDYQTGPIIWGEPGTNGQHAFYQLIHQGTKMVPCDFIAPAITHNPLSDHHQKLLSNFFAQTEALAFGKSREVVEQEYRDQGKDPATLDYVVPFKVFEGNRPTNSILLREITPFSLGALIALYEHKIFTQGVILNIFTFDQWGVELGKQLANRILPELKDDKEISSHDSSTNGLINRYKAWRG
From the text: Therefore, effects of glucosamine-6-P and N-acetylglucosamine-6-P on several of the enzymes were examined.

[5] = Solubility of N-acetylglucosamine in water miscible solvents; format: physicochemical; conditions: IPA, ethanol, methanol, acetone, tetrahydrofuran, dimethylsulfoxide, dimethylformamide, dioxane, acetonitrile
From the text: Recovering N-acetylglucosamine-containing solids from the fermentation broth can be enhanced by contacting N-acetylglucosamine in the broth with a water miscible solvent. […] Therefore, by introduction of such a water miscible solvent into the broth, the N-acetylglucosamine will become less soluble and will further recovery.

[6] = Heat stability of purified solid N-acetylglucosamine at 105 C; format: physicochemical; conditions: 98% pure sample, 2 hours at 105 C
[7] = Stability of N-acetylglucosamine in M9A medium
Description: The stability of N-acetylglucosamine was tested in an experiment similar to the glucosamine degradation studies. The stability of 80 and 40 g l^−1 N-acetyl glucosamine at pH 5.5 and 7.0 was monitored in medium M9A-without glucose over a period of two days.

[8] = Degradation in hydrochloric acid at 90-100 C based on ammonia formation; format: physicochemical; conditions: 30% hydrochloric acid, 90 C, 3 hours
Description: Glucosamine degradation was examined at 90° C. and 100° C. using 5% and 10% glucosamine hydrochloride (w/w) with 12% and 20% hydrochloric acid by weight. Samples were incubated from 1-24 hours and assayed enzymatically for ammonia using glutamate dehydrogenase. […] Glucosamine degradation is based on ammonia formation.
N-acetylglucosamine was hydrolyzed to glucosamine at 90° C. using the hybridization oven. The reaction was carried out inside a screw capped glass tube. The 30% hydrochloric acid (30 g) was preincubated at 90° C. for 1 hour. After this 10 g solid N-acetylglucosamine was added, quickly dissolved, and a To sample taken. Samples were taken at 30-minute intervals over the next three hours. […] Samples were analyzed for ammonia enzymatically.

E. coli 7107-18 = assay: Effects of N-acetyl glucosamine on E. coli 7107-18; format: cell-based; conditions: 62 g/L N-acetyl glucosamine in M9A-glucose (40 g/L), also medium pre-incubated more than eight hours
From the text: Cells were inoculated into […]-glucose (40 g/L) containing 62 g/L N-acetyl glucosamine.

[9] = Stability of NAG in fermentation at 37 C and pH 7.0; format: physicochemical; conditions: after cessation of glucose feed at 37 C and pH 7.0
From the text: The use of lower temperature and pH were key factors in stabilizing the GLcN fermentation, primarily due to the labile nature of GLcN at higher pH and temperature. However, it was shown that NAG was stable at neutral pH. Fermentation for NAG production was operated in the pH range of 6.7 to 7.0 throughout the program.

[10] = system: glucosamine synthetase (GlmS); assay: Sensitivity of GlmS enzymes to inhibition by glucosamine-6-P (initial velocity, Ki); format: biochemical, E. coli; B. subtilis; conditions: 0-30 mM glucosamine-6-P
Description: (§1) Different glucosamine synthetase enzymes, including native B. subtillus GlmS, native E. coli GlmS and mutant E. coli GlmS, were studied in vitro. Cells of various E. coli strains were grown in the M9A medium, harvested, and frozen. Cells extracts were prepared and the glucosamine synthetases were characterized and compared.
Enzyme sensitivities to the reaction product glucosamine-6-P were examined.

[11] = system: glucosamine synthetase (GlmS); format: biochemical, E. coli; B. subtilis; conditions: crude extracts
[12] = substrate: O=P(O)(O)OC[C@H]1OC(O)(CO)[C@@H](O)[C@@H]1O; assay: GlmS (glucosamine synthase) inhibition and Michaelis-Menten kinetics, crude extract of strain 2123-12; format: biochemical, Escherichia coli; conditions: other: crude extracts, nonlinear regression
Description: as §1
(§2) Enzyme sensitivities to the reaction product glucosamine-6-P were examined. […] This figure highlights the dramatic difference between the wild type GlmS and these mutant GlmS strains.
(§3) The Mutants 2123-54 and the B. subtilis enzyme have higher Ki values (Table 6). Measured Ki constants for several of these mutants are 4 to 8 times the value for the native enzyme in strain 2123-12. From shake flask studies it is apparent that decreased sensitivity to glucosamine-6-P allows higher glucosamine levels to accumulate.
(§4) These values are slightly higher than those obtained with the native enzyme.

[13] = substrate: NC(=O)CC[C@H](N)C(=O)O; assay: as above; format: biochemical, Escherichia coli; conditions: other: crude extracts, nonlinear regression
Description: as §1, §2, §3, §4

[14] = substrate: O=P(O)(O)OC[C@H]1OC(O)(CO)[C@@H](O)[C@@H]1O; assay: GlmS inhibition and Michaelis-Menten kinetics, crude extract of strain 2123-54; format: biochemical, Escherichia coli; conditions: other: crude extracts
Description: as §1, §2, §3, §4

[15] = substrate: NC(=O)CC[C@H](N)C(=O)O; assay: as above; format: biochemical, Escherichia coli; conditions: other: crude extracts
Description: as §1, §2, §3, §4

[16] = system: glucosamine synthetase (GlmS); assay: Thermal stability of GlmS enzymes (denaturation at 50 C); format: biochemical, E. coli; conditions: crude extracts incubated at 50 C, sampled over 90 minutes, assayed at 25 C
Description: Denaturation at 50° C. was used to measure possible differences in thermal stability of different GlmS enzymes. Crude extracts were incubated at 50° C. and sampled over a 90-minute period. The samples were assayed for glucosamine synthetase activity at 25° C. with saturating levels of all substrates.

Molecule: CC(=O)N[C@H]1C(O)O[C@H](COP(=O)(O)O)[C@@H](O)[C@@H]1O (stereo partly drawn) [N-acetylglucosamine-6-P, N-acetylglucosamine-6-phosphate]
- activity at 10000 µM [1]: 100%
- activity at 20000 µM [1]: 100%
- product inhibition of glucosamine N-acetyltransferase [2]: did not show any significant product inhibition
- inhibition of glucose-6-P dehydrogenase (zwf) [3]: does not significantly inhibit
- inhibition of phosphoglucoisomerase (Pgi) [4]: significantly less so; also recorded: does not significantly inhibit

Molecule: CC(=O)N[C@@H](C=O)[C@@H](O)[C@H](O)[C@H](O)CO [N-acetylglucosamine, 2-acetamido-2-deoxy-D-glucose]
- solubility in water miscible solvents [5]: very insoluble
- color change on heating [6]: turned light brown
- weight loss on heating [6]: 4.7%
- drop in pH during incubation [7]: no significant drop in pH
- degradation of N-acetyl glucosamine ([7]; 80 and 40 g l-1, pH 5.5 and 7.0, M9A without glucose, two days): No significant degradation
- amber color formation ([7]; M9A medium, 48 hours): No such color formation
- degradation based on ammonia levels [8]: around 3.5%
- growth inhibition (E. coli 7107-18): No significant growth inhibition
- time NAG was stable [9]: at least 50 hours

B1: Wild type Bacillus GlmS: wild-type Bacillus subtilis glucosamine-6-phosphate synthase (SEQ ID NO:16), expressed in E. coli strain 7107-24 (protein, listed as Bacillus subtilis)
chain: MCGIVGYIGQLDAKEILLKGLEKLEYRGYDSAGIAVANEQGIHVFKEKGRIADLREVVDANVEAKAGIGHTRWATHGEPSYLNAHPHQSALGRFTLVHNGVIENYVQLKQEYLQDVELKSDTDTEVVVQVIEQFVNGGLETEEAFRKTLTLLKGSYAIALFDNDNRETIFVAKNKSPLLVGLGDTFNVVASDAMAMLQVTNEYVELMDKEMVIVTDDQVVIKNLDGDVITRASYIAELDASDIEKGTYPHYMLKETDEQPVVMRKIIQTYQDENGKLSVPGDIAAAVAEADRIYIIGCGTSYHAGLVGKQYIEMWANVPVEVHVASEFSYNMPLLSKKPLFIFLSQSGETADSRAVLVQVKALGHKALTITNVPGSTLSREADYTLLLHAGPEIAVASTKAYTAQIAVLAVLASVAADKNGINIGFDLVKELGIAANAMEALCDQKDEMEMIAREYLTVSRNAFFIGRGLDYFVCVEGALKLKEISYIQAEGFAGGELKHGTIALIEQGTPVFALATQEHVNLSIRGNVKEVAARGANTCIISLKGLDDADDRFVLPEVNPALAPLVSVVPLQLIAYYAALHRGCDVDKPRNLAKSVTVE
- sensitivity to GlcN-6-P inhibition / product resistance (in words) [10]: product resistance very comparable to the E. coli mutant GlmS enzymes
- Km (fructose-6-P) [11]: very similar to the mutant E. coli enzyme GlmS*54

B2: E. coli GlmS (glucosamine-6-phosphate synthase), wild type, SEQ ID NO:2 (strain 2123-12) (Escherichia coli K-12) (protein)
chain: CGIVGAIAQRDVAEILLEGLRRLEYRGYDSAGLAVVDAEGHMTRLRRLGKVQMLAQAAEEHPLHGGTGIAHTRWATHGEPSEVNAHPHVSEHIVVVHNGIIENHEPLREELKARGYTFVSETDTEVIAHLVNWELKQGGTLREAVLRAIPQLRGAYGTVIMDSRHPDTLLAARSGSPLVIGLGMGENFIASDQLALLPVTRRFIFLEEGDIAEITRRSVNIFDKTGAEVKRQDIESNLQYDAGDKGIYRHYMQKEIYEQPNAIKNTLTGRISHGQVDLSELGPNADELLSKVEHIQILACGTSYNSGMVSRYWFESLAGIPCDVEIASEFRYRKSAVRRNSLMITLSQSGETADTLAGLRLSKELGYLGSLAICNVPGSSLVRESDLALMTNAGTEIGVASTKAFTTQLTVLLMLVAKLSRLKGLDASIEHDIVHGLQALPSRIEQMLSQDKRIEALAEDFSDKHHALFLGRGDQYPIALEGALKLKEISYIHAEAYAAGELKHGPLALIDADMPVIVVAPNNELLEKLKSNIEEVRARGGQLYVFADQDAGFVSSDNMHIIEMPHVEEVIAPIFYTVPLQLLAYHVALIKGTDVDQPRNLAKSVTVE
notes: made in house; host or cells: E. coli strain 2123-12 (T7-glmS integrated in the chromosome), crude cell extract
- Km [12]: 200 µM
- Km [13]: 170 µM

B3: E. coli GlmS mutant GlmS*54, SEQ ID NO:6 (Ala39Thr, Arg250Cys, Gly472Ser) (strain 2123-54) (Escherichia coli K-12; A39T/G472S/R250C) (protein)
chain: CGIVGAIAQRDVAEILLEGLRRLEYRGYDSAGLAVVDTEGHMTRLRRLGKVQMLAQAAEEHPLHGGTGIAHTRWATHGEPSEVNAHPHVSEHIVVVHNGIIENHEPLREELKARGYTFVSETDTEVIAHLVNWELKQGGTLREAVLRAIPQLRGAYGTVIMDSRHPDTLLAARSGSPLVIGLGMGENFIASDQLALLPVTRRFIFLEEGDIAEITRRSVNIFDKTGAEVKRQDIESNLQYDAGDKGIYCHYMQKEIYEQPNAIKNTLTGRISHGQVDLSELGPNADELLSKVEHIQILACGTSYNSGMVSRYWFESLAGIPCDVEIASEFRYRKSAVRRNSLMITLSQSGETADTLAGLRLSKELGYLGSLAICNVPGSSLVRESDLALMTNAGTEIGVASTKAFTTQLTVLLMLVAKLSRLKGLDASIEHDIVHGLQALPSRIEQMLSQDKRIEALAEDFSDKHHALFLSRGDQYPIALEGALKLKEISYIHAEAYAAGELKHGPLALIDADMPVIVVAPNNELLEKLKSNIEEVRARGGQLYVFADQDAGFVSSDNMHIIEMPHVEEVIAPIFYTVPLQLLAYHVALIKGTDVDQPRNLAKSVTVE
notes: made in house; host or cells: E. coli strain 2123-54 (lacZ::T7-glmS*54), crude cell extract
- Km [14]: 640 µM
- Km [15]: 730 µM

B4: WT E. coli GlmS: wild-type E. coli glucosamine-6-phosphate synthase (SEQ ID NO:2), expressed in strain 2123-12 (protein, listed as Escherichia coli)
chain: MCGIVGAIAQRDVAEILLEGLRRLEYRGYDSAGLAVVDAEGHMTRLRRLGKVQMLAQAAEEHPLHGGTGIAHTRWATHGEPSEVNAHPHVSEHIVVVHNGIIENHEPLREELKARGYTFVSETDTEVIAHLVNWELKQGGTLREAVLRAIPQLRGAYGTVIMDSRHPDTLLAARSGSPLVIGLGMGENFIASDQLALLPVTRRFIFLEEGDIAEITRRSVNIFDKTGAEVKRQDIESNLQYDAGDKGIYRHYMQKEIYEQPNAIKNTLTGRISHGQVDLSELGPNADELLSKVEHIQILACGTSYNSGMVSRYWFESLAGIPCDVEIASEFRYRKSAVRRNSLMITLSQSGETADTLAGLRLSKELGYLGSLAICNVPGSSLVRESDLALMTNAGTEIGVASTKAFTTQLTVLLMLVAKLSRLKGLDASIEHDIVHGLQALPSRIEQMLSQDKRIEALAEDFSDKHHALFLGRGDQYPIALEGALKLKEISYIHAEAYAAGELKHGPLALIDADMPVIVVAPNNELLEKLKSNIEEVRARGGQLYVFADQDAGFVSSDNMHIIEMPHVEEVIAPIFYTVPLQLLAYHVALIKGTDVDQPRNLAKSVTVE
- thermal stability at 50 C [16]: little significant difference in thermal stability
